Measurements: US6770787B2, “Heavier halogen atom substituted squaraine based dyes, process for the preparation thereof and use thereof as sensitizers for photodynamic, therapeutical and industrial applications” (priority 2001, dated 2004)
Where two headings read alike, the source gives them in different places.

Key:
[1] = photosensitized singlet oxygen generation in presence and absence of polyvinylpyrrolidone; type: physicochemical
Text: Because triplet excited states were the major transient intermediates obtained upon 532 nm laser flash photolysis studies of bis(3,5-dibromo-2,4,6-trihydroxyphenyl)squaraine and bis(3,5-diiodo-2,4,6-trihydroxyphenyl)squaraine, the efficiency of photosensitized singlet oxygen generation by these systems have been examined, since singlet oxygen is the main cytotoxic agent of the type II reactions in photodynamic therapy. Since singly deprotonated forms of bis(3,5-dibromo-2,4,6-trihydroxyphenyl)squaraine and bis(3,5-diiodo-2,4,6-trihydroxyphenyl)squaraine, have significant triplet yields and have long lifetimes (Ramaiah, D; Joy, A.; Chandrasekhar, N; Eldho, N. V.; Das, S.; George, M. V. Photochem. Photobiol. 1997, 65, 783), moreover these are the forms that are expected to be the predominant species under the biological pH conditions (around 7.4). The first level characterization of these dyes for using them as sensitizers in photodynamic therapy, we have investigated their efficiency of singlet oxygen generation in presence of drug carriers, membrane mimics and microheterogeneous media. Results obtained in presence of polyvinylpyrrolidone (PVP) using bis(3,5-dibromo-2,4,6-trihydroxyphenyl)squaraine and bis(3,5-diiodo-2,4,6-trihydroxyphenyl)squaraine are shown in TABLE 1.

[2] = system: PM2 DNA; test: plasmid DNA cleavage (DNA relaxation assay, single strand breaks) by dye plus light; type: biochemical; settings: for Relative number of single strand breaks (%): SSB in phosphate buffer pH 7.4 without additive = 100%; for fold enhancement in the cleavage of DNA: in D2O
Text: The mechanism of in vitro photodynamic activity of squaraines has been evaluated in detail by using plasmid DNA (PM2 DNA) and investigating the cleavage of DNA under a variety of conditions. Cleavage of DNA cleavage was followed by monitoring the conversion of supercoiled (Form I) to open circular (Form II) and linear forms (Form III). Induction of one single strand break by a compound/agent converts Form I to Form II and the quantification of these forms by DNA relaxation assay as described previously (Epe, B.; Hegler, J. J. Methods Enzymol. 1994, 234, 122) indicates its efficiency of DNA cleavage. Plasmid DNA cleavage is a very sensitive technique, which can be used to test the various properties of sensitizers and the DNA damage profiles obtained by using scavengers and activators can serve as a kind of fingerprint of the species directly responsible for the damage and also provide the information on the mechanism of in vitro photodynamic activity.
PM2 DNA (10,000 bp, 10 μg/mL) exposed to squaraine dyes plus light from a 1000 W halogen lamp (Philips PF811) at a distance of 33 cm in phosphate buffer (5 mM KH2PO4, 50 mM NaCl, pH 7.4) on ice. The modified DNA was precipitated by ethanol/sodium acetate and quantified the single strand breaks (SSB) by DNA relaxation assay. Superoxide dismutase (SOD) (20 μg/ml), catalase (315 U/ml) were added or the H2O in the buffer was replaced by D2O (the final isotope purity was greater than 96%) to have a better understanding of the active species involved. The results of these studies with representative squaraine based dyes bis(3,5-dibromo-2,4,6-trihydroxyphenyl)squaraine and bis(3,5-diiodo-2,4,6-trihydroxyphenyl)squaraine are shown in TABLE 2.

[3] = system: PM2 DNA; test: as above; type: biochemical; settings: SSB in phosphate buffer pH 7.4 without additive = 100%
[4] = solubility at physiological pH; settings: physiological pH conditions
[5] = system: AS52 cells; test: cell killing efficiency (cytotoxicity) with and without light; type: cell-based; settings: for cytotoxicity (cell survival): in the dark; for cell killing efficiency (% of cell survival): under illumination conditions, increasing concentration
Method: To measure the cell killing efficiency (cytotoxicity) of squaraine based sensitizers with and without light, AS52 cells were exposed to various concentrations of sensitizer. The light exposure was carried out from a 1000 W halogen lamp at a distance of 33 cm in Ca^2+ and Mg^2+ free PBS (140 mM NaCl, 3 mM KCl, 8 mM Na2HPO4, pH 7.4) on ice (10^6 cells/ml). […] The cells were pelleted by centrifugation and resuspended in PBSG three times. The cells were resuspended at 3×10^4 cells/ml in fresh medium at 37° C. and the number of cells were counted repeatedly for 60 h. From the exponential part of the growth curves (between 24 and 60 h), the number of poliferating cells at the time of resuspension was calculated by extrapolation. Cell survival was defined as the ratio between proliferating and resuspended cells.

[6] = stability in the dark in ethanol and phosphate buffer (absorbance change); type: physicochemical; settings: for Absorbance: 25° C.
Method: (§1) The information about the stability of the sensitizer in presence and absence of light is important for its practical use. Therefore, the stability of these dyes in presence and absence of light in ethanol and phosphate buffer at physiological pH conditions (pH 7.4) at 25° C. was studied by following the absorbance change using spectrophotometry. The results of change in absorbance vs time in the dark with representative squaraine based dyes bis(3,5-dibromo-2,4,6-trihydroxyphenyl)squaraine and bis(3,5-diiodo-2,4,6-trihydroxyphenyl)squaraine are shown in TABLE 3.

[7] = system: AS52 cells; test: mutagenicity, gpt locus, 6-thioguanine resistant cells; type: cell-based
Method: The mutagenic properties of squaraine based sensitizers was measured in AS52 cells, which carry the bacterial guanine phosphoribosyltraiisferase (gpt) gene as a selection marker that confers sensitivity to 6-thioguanine. AS52 cells were cultured in cleansing medium containing 11 μg/ml xanthine 219 μg/ml xanthine, 22 μg/ml adenine, 1.2 μg/ml aminopterin and 8.8 μg/ml mycophenolic acid) for one week to eliminate spontaneous gpt mutants. […] During this time, exponential growth of cells was maintained. 2×10^5 cells were diluted in 10 ml culture medium and plated in petri dishes (94 mm) After 2 h, 6-thioguanine was added to each plate (final concentration 2.5 μg/ml) for selection. 200 cells were added in 5 ml culture medium and plated in petri dishes (60 mm) to determine the cloning efficiencies. The plates were incubated for 7 to 9 days. The medium was replaced by NaCl solution (0.9% v/v), the cell colonies were fixed with methanol (−20° C.) for 15 min and stained with Giemsa (10% in H2O) for 15 min. The subsequent quantification of 6-thioguanine resistant cells and the determination of cytotoxicity (ratio of the plating efficiences of treated and untreated cells) directly after exposure to squaraines plus light carried out according to the protocol (Tindall, K. R.; Stankowski Jr. L. F.; Machanoff, R.; Hsie, A. W. Mutat. Res. 1986, 160, 121-131).

[8] = stability under irradiation conditions (photobleaching) in buffer; type: physicochemical; settings: for Absorbance: 1000 W halogen lamp; for photobleaching: within 5 min of irradiation, buffer pH 7.4
Method: as §1
Compound bis(3,5-diiodo-2,4,6-trihydroxyphenyl)squaraine undergoes very fast photobleaching (nearly 50% within 5 min of irradiation), when compared to bis(3,5-dibromo-2,4,6-trihydroxyphenyl)squaraine (25%). The photobleaching was increased with the time of irradiation in both the cases. While photobleaching might be thought to be disadvantageous property in a tumor photosensitizer, but it has potential benefits since dosage can be adjusted to keep the photosensitizer in tumor at effective levels. Moreover because of their fast photobleaching, a patient after the photodynamic treatment is not required to stay in the dark for long periods of time and if required therapy can be repeated frequently with short intervals of time.

[9] = system: AS52 cells; test: induction of micronuclei; type: cell-based
Method: Further to understand the genetic effects, the micronuclei induced by bis(3,5-dibromo-2,4,6-trihydroxyphenyl)squaraine and bis(3,5-diiodo-2,4,6-trihydroxyphenyl)squaraine were also quantified in AS52 cells. AS52 cells were exposed to squaraines as described above and resuspended in full medium. After incubation for 24 h at 39° C., approximately 1×10^5 cells were fixed on a microscope slide by cytospin-centrifugation and treatment with methanol for 1 h at −21° C. After staining with bisbenzimide for 3 min in PBS (without Ca2+ and Mg2+), 2000 cells were examined for the presence of micronuclei with a fluorescent microscope.

[10] = buffer pH 7.4, irradiation time 0 min
[11] = buffer pH 7.4, irradiation time 5 min
[12] = buffer pH 7.4, irradiation time 10 min
[13] = buffer pH 7.4, irradiation time 15 min
[14] = buffer pH 7.4, irradiation time 20 min
[15] = buffer pH 7.4, irradiation time 30 min

| Compound | singlet oxygen quantum yields ([1]; PVP 0 mM) | singlet oxygen quantum yields ([1]; PVP 14 mM) | Relative number of single strand breaks (%) ([2]; Catalase (315 U/mL)) | Relative number of single strand breaks (%) ([2]; D2O Buffer) | Relative number of single strand breaks (%) ([2]; SOD (20 g/mL)) | fold enhancement in the cleavage of DNA [2] | Relative number of single strand breaks (%) ([3]; PH 7.8) | Relative number of single strand breaks (%) ([3]; pH 7.0) | solubility [4] | cytotoxicity (cell survival) [5] | cell killing efficiency (% of cell survival) [5] | Absorbance ([6]; buffer pH 7.4, dark, 0 min) | Absorbance ([6]; buffer pH 7.4, dark, 30 min) | Absorbance ([6]; buffer pH 7.4, dark, 60 min) | Absorbance ([6]; buffer pH 7.4, dark, 90 min) | Absorbance [8, 10] | Absorbance [8, 11] | Absorbance [8, 12] | Absorbance [8, 13] | Absorbance [8, 14] | further results |
| --- | --- | --- | --- | --- | --- | --- | --- | --- | --- | --- | --- | --- | --- | --- | --- | --- | --- | --- | --- | --- | --- |
| O=C1C(Br)=C(O)C(=C2C(=O)C(c3c(O)c(Br)c(O)c(Br)c3O)=C2O)C(O)=C1Br [bis(3,5-dibromo-2,4,6-trihydroxyphenyl)squaraine] | 0.13 ± 0.005 | 0.29 ± 0.001 | 115 ± 5 | 526 ± 28 | 109 ± 5 | Nearly five | 105 ± 4 | 127 ± 12 | good solubility | no significant effect | high cell killing efficiency | 1.84 | 1.72 | 1.65 | 1.61 | 1.8 | 1.35 | 1.30 | 1.25 | 1.17 | stability in the dark [6]: very stable; Absorbance ([6]; ethanol, dark, 0 min): 1.90; Absorbance ([6]; ethanol, dark, 30 min): 1.88; Absorbance ([6]; ethanol, dark, 60 min): 1.88; Absorbance ([6]; ethanol, dark, 90 min): 1.88; induction of mutations (6-thioguanine resistant cells) [7]: do not induce immediate mutations; Absorbance [8, 15]: 1.10; photobleaching [8]: 25%; induction of micronuclei [9]: do not induce significant amounts of micronuclei |
| O=C1C(I)=C(O)C(=C2C(=O)C(c3c(O)c(I)c(O)c(I)c3O)=C2O)C(O)=C1I [bis(3,5-diiodo-2,4,6-trihydroxyphenyl)squaraine] | 0.47 ± 0.017 | 0.62 ± 0.007 | 92 ± 6 | 614 ± 97 | 100 ± 2 | six fold | 109 ± 22 | 134 ± 9 | good solubility | no significant effect | high cell killing efficiency | 1.35 | 1.47 | 1.38 | 1.36 | 1.72 | 0.87 | 0.74 | 0.65 | 0.58 | increase in efficiency of singlet oxygen generation ([1]; in microheterogeneous media compared with methanol): ~15%; stability in the dark ([6]; buffer solutions at pH 7.4, 90 min): slight bleaching; stability in the dark ([6]; ethanol): very stable; induction of mutations (6-thioguanine resistant cells) ([7]; in presence and absence of light): do not induce immediate mutations; cytotoxicity (ratio of plating efficiencies) ([7]; in presence of light): severe cytotoxicity; Absorbance [8, 15]: 0.47; photobleaching [8]: ~50%; induction of micronuclei ([9]; in presence and absence of light, 24 h incubation): do not induce significant amounts of micronuclei |
